Measured values: patent publication US11738031B2, “Compositions and methods for preventing or treating muscle conditions” (The Board of Trustees of the Leland Stanford Junior …, priority 2017, dated 2023)

Columns and labels:
[1] = published, FDA approved dose range; cited from earlier work
[2] = tested on: endogenous MuSCs in tibialis anterior (TA) muscles; assay: BLI of endogenous MuSC expansion after intramuscular bupivacaine/dmPGE2 (Example 4); format: in vivo, mouse; conditions: 0.125%, 0.25% or 0.5% BPV in combination with 10 μg dmPGE2, two weeks after injection
Description: Double-transgenic Pax7^CreERT2;Rosa26-LSL-Luc mice were generated by crossing Pax7^CreERT2 mice and Rosa26-LSL-Luc mice obtained from Jackson Laboratory (Stock #005125). These genotypes were validated by appropriate PCR-based strategies. All mice from transgenic and wild-type strains were of young age (2-4 months). All experiments were conducted using age and gender-matched controls. As depicted in the experimental scheme shown in FIG. 23A, mice were treated with five consecutive daily intraperitoneal injections of tamoxifen to activate luciferase expression under the control of the Pax7 promoter. A week after the last tamoxifen injection, the tibialis anterior (TA) muscles were injected intramuscularly with 50 μL of a drug mixture containing 0.125%, 0.25%, or 0.5% bupivacaine (BPV) (Cayman Chemical Cat #16618) and 10 μg 16,16-dimethyl prostaglandin E2 (dmPGE2; Tocris, Catalog #4027) using a 30 gauge needle on a Hamilton syringe. The contralateral TA received 50 μL of a mixture containing 0.5% bupivacaine (BPV) and DMSO vehicle as baseline sham control. Bioluminescence was assayed at days 3, 7, 10 and 14 post-injury.
Bioluminescence imaging (BLI) was performed using a Xenogen-100 system, as previously described. Briefly, mice were anesthetized using isofluorane inhalation and administered 120 μL D-luciferin (0.1 mmol/kg, reconstituted in PBS; Caliper LifeSciences) by intraperitoneal injection. BLI was acquired with between 5-60 second exposure at F-stop=1.0 at 5 minutes after luciferin injection. Digital images were recorded and analyzed using Living Image software (Caliper LifeSciences). Images were analyzed with a consistent region-of-interest (ROI) placed over each hindlimb to calculate a bioluminescence signal. A bioluminescence signal was calculated in radiance (p s^−1 cm^−2 sr^−1) value of 10^4 to define a positive threshold signal over background. BLI imaging was performed bi-weekly for 2 weeks after coinjection of BPV with dmPGE2 or vehicle.
The data in FIGS. 23A-C and 24 are shown as the mean±s.e.m. with n=6 mice. […]

CCCCN1CCCCC1C(=O)Nc1c(C)cccc1C (centres unmarked) [bupivacaine]
NOAEL [1]: 0.5% | muscle regeneration (fold change in BLI) vs BPV dose [2]: dose-dependent increase in muscle regeneration
